pIC50: −log10 of the molar value. ≈ marks a conversion by molar mass, not a printed value.
Test system: Staphylococcus aureus ATCC 29213
Assay: In vitro antibacterial evaluation, broth microdilution MIC, reference strain
Format: cell-based
Conditions: Staphylococcus aureus, ATCC29213; S. aureus ATCC 29213
With O=C(/C=C/c1ccccc1)Nc1ccc(Br)c(F)c1 [Compound 9, (2E)-N-(4-Bromo-3-fluorophenyl)-3-phenylprop-2-enamide] the MIC was > 805 µM.
With O=C(/C=C/c1ccccc1)Nc1cc(Cl)ccc1F [Compound 8, (2E)-N-(5-Chloro-2-fluorophenyl)-3-phenylprop-2-enamide] the MIC was 931 µM (≈ 257 µg/mL).
In the case of O=C(/C=C/c1ccccc1)Nc1ccc(F)cc1C(F)(F)F [Compound 14, (2E)-N-[4-Fluoro-2-(trifluoromethyl)phenyl]-3-phenylprop-2-enamide], the MIC was > 828 µM.
For O=C(/C=C/c1ccccc1)Nc1cc(Cl)c(Cl)cc1Cl [Compound 5, (2E)-3-Phenyl-N-(2,4,5-trichlorophenyl)prop-2-enamide], the MIC was > 790 µM.

Test system: methicillin-resistant Staphylococcus aureus (MRSA) 63718
Assay: In vitro antibacterial evaluation, broth microdilution MIC, MRSA isolate 63718
Format: cell-based
Conditions: clinical isolate MRSA 63718
With O=C(/C=C/c1ccccc1)Nc1ccc(Br)c(F)c1 [Compound 9, (2E)-N-(4-Bromo-3-fluorophenyl)-3-phenylprop-2-enamide] the MIC was > 805 µM.
In the case of O=C(/C=C/c1ccccc1)Nc1cc(Cl)ccc1F [Compound 8, (2E)-N-(5-Chloro-2-fluorophenyl)-3-phenylprop-2-enamide], the MIC was > 931 µM.
In the case of O=C(/C=C/c1ccccc1)Nc1ccc(F)cc1C(F)(F)F [Compound 14, (2E)-N-[4-Fluoro-2-(trifluoromethyl)phenyl]-3-phenylprop-2-enamide], the MIC was > 828 µM.
With O=C(/C=C/c1ccccc1)Nc1cc(Cl)c(Cl)cc1Cl [Compound 5, (2E)-3-Phenyl-N-(2,4,5-trichlorophenyl)prop-2-enamide] the MIC was > 790 µM.

Test system: methicillin-resistant Staphylococcus aureus (MRSA) SA 630
Assay: In vitro antibacterial evaluation, broth microdilution MIC, MRSA isolate SA 630
Format: cell-based
Conditions: clinical isolate MRSA SA 630
Work on O=C(/C=C/c1ccccc1)Nc1ccc(Br)c(F)c1 [Compound 9, (2E)-N-(4-Bromo-3-fluorophenyl)-3-phenylprop-2-enamide] yielded an MIC of 805 µM (≈ 258 µg/mL).
In the case of O=C(/C=C/c1ccccc1)Nc1cc(Cl)ccc1F [Compound 8, (2E)-N-(5-Chloro-2-fluorophenyl)-3-phenylprop-2-enamide], the MIC was > 931 µM.
In the case of O=C(/C=C/c1ccccc1)Nc1ccc(F)cc1C(F)(F)F [Compound 14, (2E)-N-[4-Fluoro-2-(trifluoromethyl)phenyl]-3-phenylprop-2-enamide], the MIC was > 828 µM.
For O=C(/C=C/c1ccccc1)Nc1cc(Cl)c(Cl)cc1Cl [Compound 5, (2E)-3-Phenyl-N-(2,4,5-trichlorophenyl)prop-2-enamide], the MIC was > 790 µM.

Test system: Mycobacterium tuberculosis H37Ra/ATCC 25177
Assay: In vitro antimycobacterial evaluation
Format: cell-based
Conditions: M. tuberculosis H37Ra
Text: Isoniazid (Sigma) was used as the standard.
In the case of O=C(/C=C/c1ccccc1)Nc1ccc(Br)c(F)c1 [Compound 9, (2E)-N-(4-Bromo-3-fluorophenyl)-3-phenylprop-2-enamide], the MIC was > 403 µM.
With O=C(/C=C/c1ccccc1)Nc1cc(Cl)ccc1F [Compound 8, (2E)-N-(5-Chloro-2-fluorophenyl)-3-phenylprop-2-enamide] the MIC was > 465 µM.
In the case of O=C(/C=C/c1ccccc1)Nc1ccc(F)cc1C(F)(F)F [Compound 14, (2E)-N-[4-Fluoro-2-(trifluoromethyl)phenyl]-3-phenylprop-2-enamide], the MIC was > 414 µM.

Test system: THP1-Blue™ NF-κB cell line
Assay: In vitro cell viability assay (WST-1)
Format: cell-based
Conditions: Homo sapiens; THP1-Blue NF-κB cells, 24 h incubation, WST-1, mean ± SEM, n = 6; read-out: Tox IC50 ± SEM
Description: The cytotoxic effect of the tested compounds was specified on THP1-Blue™ NF-κB cell line (Invivogen; San Diego, CA, USA), as described previously. […] The final concentration of DMSO was 0.1% (v/v) in each well. The viability analysis was performed after 24 h incubation with the tested substances using the WST-1 Cell Proliferation Reagent kit (Roche Diagnostics, Basel, Switzerland) according to the manufacturer’s manual. […] The IC50 values were calculated by four-parameter logistic (4PL) analysis from obtained viability curves by GraphPad Prism 8.0.1 (San Diego, CA, USA) software.
For O=C(/C=C/c1ccccc1)Nc1ccc(Br)c(F)c1 [Compound 9, (2E)-N-(4-Bromo-3-fluorophenyl)-3-phenylprop-2-enamide], the pIC50 was < 4.70.
For O=C(/C=C/c1ccccc1)Nc1cc(Cl)ccc1F [Compound 8, (2E)-N-(5-Chloro-2-fluorophenyl)-3-phenylprop-2-enamide], the pIC50 was < 4.70.
For O=C(/C=C/c1ccccc1)Nc1ccc(F)cc1C(F)(F)F [Compound 14, (2E)-N-[4-Fluoro-2-(trifluoromethyl)phenyl]-3-phenylprop-2-enamide], the pIC50 was < 4.70.
With O=C(/C=C/c1ccccc1)Nc1cc(Cl)c(Cl)cc1Cl [Compound 5, (2E)-3-Phenyl-N-(2,4,5-trichlorophenyl)prop-2-enamide] the pIC50 was < 4.70.

Test system: NF-κB in THP1-Blue™ NF-κB cells
Assay: Determination of NF-κB activity after LPS stimulation (Quanti-Blue)
Format: cell-based, human
Conditions: 1 µM compound, 1 h pretreatment, LPS 1 µg/mL, 24 h, vs DMSO group
Description: To evaluate the anti-inflammatory potential of novel compounds, their ability to attenuate the lipopolysaccharide (LPS)-activated pro-inflammatory transcription nuclear factor (NF)-κB was measured as was described previously. Briefly, THP1-Blue™ NF-κB cells were pretreated by tested compounds dissolved in DMSO in the non-toxic concentration 1 µM for 1 h. After LPS (1 µg/mL) stimulation, the NF-κB activity was evaluated by Quanti-Blue medium (Invivogen) according to the manufacturer’s instructions. The results from 3 independent experiments performed in triplicate (n = 9) were analyzed by GraphPad Prism 8.0.1 software. The outlaying values were excluded by ROUT algorithms (Q = 5%).
Figure 1 Effect of tested compounds on activity of transcription factor NF-κB. […] Then, lipopolysaccharide (LPS) 1 µg/mL was added to trigger the NF-κB activation. The activity of NF-κB was measured 24 h after LPS stimulation using QuantiBlue™ assay. The graph represents mean ± SEM (n = 9). […] Groups were compared with the help of the one-way ANOVA test followed by Fisher’s LSD multiple comparison test. * indicates statistical significance (p < 0.05) to DMSO group; ** indicates statistical significance (p < 0.01) to DMSO group; *** indicates statistical significance (p < 0.001) to DMSO group; **** indicates statistical significance (p < 0.0001) to DMSO group. CA—cinnamic acid.
With O=C(/C=C/c1ccccc1)Nc1ccc(F)cc1C(F)(F)F [Compound 14, (2E)-N-[4-Fluoro-2-(trifluoromethyl)phenyl]-3-phenylprop-2-enamide] the “decrease of NF-κB activity” value was “approximately 9%”.
With O=C(/C=C/c1ccccc1)Nc1cc(Cl)c(Cl)cc1Cl [Compound 5, (2E)-3-Phenyl-N-(2,4,5-trichlorophenyl)prop-2-enamide] the “increase of NF-κB activity” value was 10–15%.

Test system: not listed separately
Assay: Lipophilicity determination by RP-TLC
Format: physicochemical
Design: key to RM (MeOH:H2O): RM = log(1/RF - 1), from RP-18 TLC
Conditions: 72:28 MeOH:H2O
Description: RM values were determined from the RP-18 TLC measurements. […] The volatiles were carefully evaporated, and the plate was developed by MeOH (100%) or MeOH: H2O-HPLC (72:28 v/v) or MeOH: NaOAc buffer, pH 7.4 (72:28 v/v). After drying, the spots were visualized under UV (λ = 365 nm). RM data were obtained from equation: RM = log(1/RF-1). Each experiment was repeated three times.
With O=C(/C=C/c1ccccc1)Nc1ccc(Br)c(F)c1 [Compound 9, (2E)-N-(4-Bromo-3-fluorophenyl)-3-phenylprop-2-enamide] the “RM (MeOH:H2O)” value was 0.6797.
With O=C(/C=C/c1ccccc1)Nc1cc(Cl)ccc1F [Compound 8, (2E)-N-(5-Chloro-2-fluorophenyl)-3-phenylprop-2-enamide] the “RM (MeOH:H2O)” value was 0.5411.
With O=C(/C=C/c1ccccc1)Nc1ccc(F)cc1C(F)(F)F [Compound 14, (2E)-N-[4-Fluoro-2-(trifluoromethyl)phenyl]-3-phenylprop-2-enamide] the “RM (MeOH:H2O)” value was 0.3011.
For O=C(/C=C/c1ccccc1)Nc1cc(Cl)c(Cl)cc1Cl [Compound 5, (2E)-3-Phenyl-N-(2,4,5-trichlorophenyl)prop-2-enamide], the “RM (MeOH:H2O)” value was 0.9695.

Same assay, conditions: 72:28 MeOH:NaOAc buffer (pH 7.4)
For O=C(/C=C/c1ccccc1)Nc1ccc(Br)c(F)c1 [Compound 9, (2E)-N-(4-Bromo-3-fluorophenyl)-3-phenylprop-2-enamide], the “RM (pH 7.4)” value was 0.6895.
With O=C(/C=C/c1ccccc1)Nc1cc(Cl)ccc1F [Compound 8, (2E)-N-(5-Chloro-2-fluorophenyl)-3-phenylprop-2-enamide] the “RM (pH 7.4)” value was 0.5495.
With O=C(/C=C/c1ccccc1)Nc1ccc(F)cc1C(F)(F)F [Compound 14, (2E)-N-[4-Fluoro-2-(trifluoromethyl)phenyl]-3-phenylprop-2-enamide] the “RM (pH 7.4)” value was 0.1330.
In the case of O=C(/C=C/c1ccccc1)Nc1cc(Cl)c(Cl)cc1Cl [Compound 5, (2E)-3-Phenyl-N-(2,4,5-trichlorophenyl)prop-2-enamide], the “RM (pH 7.4)” value was 0.9832.

Same assay, conditions: 100% MeOH
In the case of O=C(/C=C/c1ccccc1)Nc1ccc(Br)c(F)c1 [Compound 9, (2E)-N-(4-Bromo-3-fluorophenyl)-3-phenylprop-2-enamide], the “RM (100% MeOH)” value was −0.4081.
For O=C(/C=C/c1ccccc1)Nc1cc(Cl)ccc1F [Compound 8, (2E)-N-(5-Chloro-2-fluorophenyl)-3-phenylprop-2-enamide], the “RM (100% MeOH)” value was −0.4711.
In the case of O=C(/C=C/c1ccccc1)Nc1ccc(F)cc1C(F)(F)F [Compound 14, (2E)-N-[4-Fluoro-2-(trifluoromethyl)phenyl]-3-phenylprop-2-enamide], the “RM (100% MeOH)” value was −0.6797.
With O=C(/C=C/c1ccccc1)Nc1cc(Cl)c(Cl)cc1Cl [Compound 5, (2E)-3-Phenyl-N-(2,4,5-trichlorophenyl)prop-2-enamide] the “RM (100% MeOH)” value was −0.2497.

Test system: not given
Assay: not given
Conditions: RP-HPLC, 72:28 MeOH:H2O
With O=C(/C=C/c1ccccc1)Nc1ccc(Br)c(F)c1 [Compound 9, (2E)-N-(4-Bromo-3-fluorophenyl)-3-phenylprop-2-enamide] the Logk was 0.5025.
O=C(/C=C/c1ccccc1)Nc1cc(Cl)ccc1F [Compound 8, (2E)-N-(5-Chloro-2-fluorophenyl)-3-phenylprop-2-enamide] showed a Logk of 0.3692.
Work on O=C(/C=C/c1ccccc1)Nc1ccc(F)cc1C(F)(F)F [Compound 14, (2E)-N-[4-Fluoro-2-(trifluoromethyl)phenyl]-3-phenylprop-2-enamide] yielded a Logk of 0.1607.
With O=C(/C=C/c1ccccc1)Nc1cc(Cl)c(Cl)cc1Cl [Compound 5, (2E)-3-Phenyl-N-(2,4,5-trichlorophenyl)prop-2-enamide] the Logk was 0.8373.

Test system: not listed separately
Assay: physchem
Conditions: pH 6.5
With O=C(/C=C/c1ccccc1)Nc1ccc(Br)c(F)c1 [Compound 9, (2E)-N-(4-Bromo-3-fluorophenyl)-3-phenylprop-2-enamide] the chromatographic logD was 0.541.
In the case of O=C(/C=C/c1ccccc1)Nc1cc(Cl)ccc1F [Compound 8, (2E)-N-(5-Chloro-2-fluorophenyl)-3-phenylprop-2-enamide], the chromatographic logD was 0.415.
In the case of O=C(/C=C/c1ccccc1)Nc1ccc(F)cc1C(F)(F)F [Compound 14, (2E)-N-[4-Fluoro-2-(trifluoromethyl)phenyl]-3-phenylprop-2-enamide], the chromatographic logD was 0.222.
O=C(/C=C/c1ccccc1)Nc1cc(Cl)c(Cl)cc1Cl [Compound 5, (2E)-3-Phenyl-N-(2,4,5-trichlorophenyl)prop-2-enamide] gave a chromatographic logD of 0.865.

Same assay, conditions: pH 7.4
In the case of O=C(/C=C/c1ccccc1)Nc1ccc(Br)c(F)c1 [Compound 9, (2E)-N-(4-Bromo-3-fluorophenyl)-3-phenylprop-2-enamide], the chromatographic logD was 0.56.
O=C(/C=C/c1ccccc1)Nc1cc(Cl)ccc1F [Compound 8, (2E)-N-(5-Chloro-2-fluorophenyl)-3-phenylprop-2-enamide] gave a chromatographic logD of 0.433.
For O=C(/C=C/c1ccccc1)Nc1ccc(F)cc1C(F)(F)F [Compound 14, (2E)-N-[4-Fluoro-2-(trifluoromethyl)phenyl]-3-phenylprop-2-enamide], the chromatographic logD was 0.243.
Molecule O=C(/C=C/c1ccccc1)Nc1cc(Cl)c(Cl)cc1Cl [Compound 5, (2E)-3-Phenyl-N-(2,4,5-trichlorophenyl)prop-2-enamide] has a chromatographic logD of 0.888.

— PMC7570544, “Biological Activities and ADMET-Related Properties of Novel Set of Cinnamanilides” (Molecules, 2020)
